Test results: patent US20080167282A1, “Use of Inhibitors of Steroid Activity for the Treatment of Substance Related Disorders” (priority 2005, published 2008)

Experiment: Study on the cocaine addiction: case report of a patient treated for hirsutism
Type: in vivo, human
Details: cocaine user; 50 mg 1 cp daily; after 6 months of therapy (treatment lasted approximately 9 months)
Protocol: In the course of the follow up transaminases and hormones were assayed.

Which “cocaine use status during follow up” value does the source give for `CC(=O)O[C@]1(C(C)=O)CC[C@H]2[C@@H]3C=C(Cl)C4=CC(=O)[C@@H]5C[C@@H]5[C@]4(C)[C@H]3CC[C@@]21C` [cyproterone acetate] here?
Its value is “drug free”.
